{"source": "paper PMC7503370", "about": "“Cellular Signaling and Anti-Apoptotic Effects of Prolactin-Releasing Peptide and Its Analog on SH-SY5Y Cells” (International Journal of Molecular Sciences, 2020)", "format_in_all_cases": "cell-based, human", "key": {"[1]": {"system": "p-c-Jun, p-ERK, p-Bad, Bax/Bcl-2 in SH-SY5Y cells", "assay": "Western blotting of anti-apoptotic signaling in MG-stressed cells", "conditions": "0.6 mM MG 16 h vs control cells", "experimental": "(§1) Figure 7 PrRP31 and palm^11-PrRP31 affected anti-apoptotic signaling in SH-SY5Y cells. Immunoblots: (a) and their quantifications: (b). SH-SY5Y cells were pretreated with PrRP31 and palm^11-PrRP31 at a concentration of 1 × 10^−5 M for 4 h and then stressed with 0.6 mM MG for 16 h. Activation was expressed as the ratio of the activated protein to the total amount of the protein, both normalized to loading control, GAPDH. Data are presented as the means ± SEM as a percentage of control cells treated with medium alone. Analysis is made vs. MG by a Student’s t-test, * p < 0.5, ** p < 0.01 (each sample in triplicates).\n(§2) For the investigation of the molecular mechanism of PrRP31 and its analog in the cells, signaling pathways were studied by Western blotting (WB). The cells were cultured in 6-well plates at a density of 800,000 cells per well. Growth medium was exchanged for serum-free DMEM 16 h before an experiment, and then, the cells were incubated with PrRP31, palm^11-PrRP31, or scrambled peptide at a final concentration of 1 × 10^−5 M or insulin at a concentration of 1 × 10^−7 M at 37 °C for 8 min. The cells were rapidly cooled on ice and lysed in 400 µl of Laemmli sample buffer (62.5 mM Tris-HCl with pH 6.8, 2% SDS, 10% glycerol, 0.01% bromophenol blue, 5% mercaptoethanol, 50 mM NaF, and 1 mM Na3VO4) and stored at −20 °C. Afterward, the cell lysates were analyzed by WB. SDS-electrophoresis and WB were carried out using a Criterion system with a 26-well 4−15% Criterion^TM TGX^TM Precast Midi Protein Gel (Bio-Rad, Hercules, CA, USA) at a constant voltage of 200 V or 100 V, respectively.\n(§3) Subsequently, the membranes were incubated overnight with primary antibody (Ab) at 4 °C, according to the manufacturer´s instructions (Table 2). The next day, the membranes were incubated with an HRP-linked secondary antibody for 1 h at room temperature. Chemiluminescence was visualized with a ChemiDoc^TM System (Bio-Rad). Band intensities were normalized using glyceraldehyde 3-phosphate dehydrogenase (GAPDH) as an internal loading control.\n(§4) For analysis of the molecular mechanism during MG stress, the growth medium was exchanged for serum-free DMEM 16 h before the experiment. The cells were pretreated with 1 × 10^−5 M PrRP31 or palm^11-PrRP31 for 4 h; then, MG was added to a final concentration of 0.6 mM, and the cells were incubated at 37 °C for 16 h. The controls and compounds were tested in triplicate."}, "[2]": {"system": "Tau protein phosphorylation in SH-SY5Y cells", "assay": "Western blotting of Tau phosphorylation in MG-stressed cells", "conditions": "0.6 mM MG 16 h vs control cells", "experimental": "as §1, with “8” for “7”, “attenuate Tau hyperphosphorylation at the epitope Ser396” for “affected anti-apoptotic signaling”, “SH-SY5Y. Immunoblots with:” for “SH-SY5Y cells. Immunoblots:”, “sample replicate” for “sample”, “triplicate).” for “triplicates).”\nas §2, §3, §4"}, "[3]": {"system": "p-m-Tor, p-GSK-3β, p-ERK, p-CREB in SH-SY5Y cells", "assay": "Western blotting with selective inhibitors of signaling pathways", "experimental": "Immunoblots with PrRP31 and palm^11-PrRP31: (a) and insulin: (b) and their quantifications: (c). SH-SY5Y cells were incubated firstly with selective inhibitors for 2 min and then either with PrRP31 and its palmitoylated analog at a final concentration 1 × 10^−5 M, or with insulin in the final concentration 1 × 10^−7 M at 37 °C for 8 min, or alone in serum-free medium. Activated protein was normalized to loading control, GAPDH. Data are presented as the means ± SEM as a percentage of control cells treated with medium alone. Analysis is made between groups as shown in the graph by a Student’s t-test, * p < 0.5, ** p < 0.01, *** p < 0.001(each sample in triplicates).\n(§5) Eight minutes of incubation was performed in a series of experiments with different exposure times (5, 10, 15, 30, and 60 min) to PrRP31 and its palmitoylated analog. Activation of analogs was strongest after 10 min. Then, the cells were treated with inhibitors of signaling pathways for 2 min, and analogs were added for 8 min. The time of exposure was set to 8 min to ensure that the incubation time for PrRP31 and its palmitoylated analog was the same. The controls and compounds were tested in triplicate in three independent experiments. The PI3K/Akt pathway is one of the main signaling pathways of insulin; therefore, insulin was used as a positive control. Scrambled peptide was used as a negative control. Activation is expressed as the ratio of the activated protein to the total amount of the protein. GAPDH was used as a loading control.\nFor further research, inhibitors of signaling pathways were used. The growth medium was exchanged for serum-free DMEM 16 h before the experiment. On the day of the experiment, cells were incubated for 2 min with rapamycin, SB216736 or U0126 at a final concentration of 1 × 10^−6 M; then, PrRP31, palm^11-PrRP31 or scrambled peptide at a final concentration of 1 × 10^−5 M or insulin at a concentration of 1 × 10^−7 M was added for 8 min. The plates were stored at 37 °C. The controls and compounds were tested in triplicate."}, "[4]": {"system": "PI3K/Akt signaling pathway in SH-SY5Y cells", "assay": "Western blotting of PI3K/Akt signaling pathway after 8 min incubation", "conditions": "37 °C", "experimental": "Figure 1 Prolactin-releasing peptide 31 (PrRP31) and palm^11-PrRP31 increased phosphoinositide-3 kinase (PI3K/Akt) signaling pathway in SH-SY5Y cells. Immunoblots: (a) and their quantifications: (b). SH-SY5Y cells were incubated either with PrRP31 and its palmitoylated analog and scrambled at a final concentration 1 × 10^-5 M, or with insulin at the final concentration 1 × 10^−7 M at 37 °C for 8 min, or medium alone (control). Activation was expressed as the ratio of the activated protein to the total amount of the protein, both normalized to loading control, glyceraldehyde 3-phosphate dehydrogenase (GAPDH). Data are presented as the means ± SEM as a percentage of control cells analyzed by one-way ANOVA followed by the Dunnett post hoc test, * p < 0.5, ** p < 0.01, **** p < 0.0001 (n = 3, each sample in triplicates).\nas §2, §3, §5"}, "[5]": {"conditions": "inhibitor 1 × 10^−6 M for 2 min, then peptide for 8 min, under the control level"}, "[6]": {"conditions": "PrRP31 and palm^11-PrRP31 1 × 10^−5 M, insulin 1 × 10^−7 M, 37 °C, 8 min"}}}
{"molecule": "CC(=O)C=O", "note": "[MG, methylglyoxal, reference compound]", "values": [{"measurement": "level of p-Bad (Ser112)/Bad after MG", "setting": "[1]", "result": "increased"}, {"measurement": "level of p-Bad (Ser136)/Bad after MG", "setting": "[1]", "result": "increased"}, {"measurement": "level of p-c-Jun (Ser73)/c-Jun after MG", "setting": "[1]", "result": "increased"}, {"measurement": "Tau phosphorylation at Ser198/199/202 (Tau 1)/Tau 5 after MG", "setting": "[2]", "result": "tended to increase"}, {"measurement": "Tau phosphorylation at Ser396 after MG", "setting": "[2]", "result": "increased"}]}
{"molecule": "Cn1cc(C2=C(c3ccc(Cl)cc3Cl)C(=O)NC2=O)c2ccccc21", "note": "[SB216736]", "values": [{"measurement": "effect on the level of p-GSK-3β (Ser9) in cells treated with insulin", "setting": "[3]; inhibitor 1 × 10^−6 M for 2 min, then insulin 1 × 10^−7 M for 8 min", "result": "tended to decrease"}, {"measurement": "effect on the palm^11-PrRP31-induced increase of p-GSK-3β (Ser9)", "setting": "[3]; inhibitor 1 × 10^−6 M for 2 min, then palm^11-PrRP31 1 × 10^−5 M for 8 min", "result": "significantly reversed"}]}
{"molecule": "N#CC(=C(/N)Sc1ccccc1N)/C(C#N)=C(/N)Sc1ccccc1N", "note": "[U0126]", "values": [{"measurement": "effect on the increase of p-ERK and p-CREB by PrRP31, palm^11-PrRP31 and insulin", "setting": "[3]; [5]", "result": "significantly blocked"}]}
{"molecule": "CO[C@H]1C[C@@H]2CC[C@@H](C)[C@@](O)(O2)C(=O)C(=O)N2CCCC[C@H]2C(=O)O[C@H]([C@H](C)C[C@@H]2CC[C@@H](O)[C@H](OC)C2)CC(=O)[C@H](C)/C=C(\\C)[C@@H](O)[C@@H](OC)C(=O)[C@H](C)C[C@H](C)/C=C/C=C/C=C/1C", "note": "[rapamycin, Rapamycin]", "values": [{"measurement": "effect on the increase of p-m-Tor (Ser2448) by PrRP31, palm^11-PrRP31 and insulin", "setting": "[3]; [5]", "result": "inhibited"}]}
{"molecule": "GHFTHSIRMI K^11 (γ-E (N-palm))TPRNASVYARPCitDWWGICitPES [scrambled-palm^11-PrRP31]", "values": [{"measurement": "effect on the PI3K/Akt pathway", "setting": "[4]; negative control, 1 × 10^-5 M", "result": "did not significantly affect"}]}
{"molecule": "insulin: human insulin used as a positive control", "values": [{"measurement": "activation of proteins of the insulin signaling cascade", "setting": "[4]; positive control, 1 × 10^−7 M", "result": "significantly activated"}, {"measurement": "p-CREB after incubation with peptide, no inhibitor", "setting": "[3]; [6]", "result": "increased"}, {"measurement": "p-ERK after incubation with peptide, no inhibitor", "setting": "[3]; [6]", "result": "increased"}, {"measurement": "p-m-Tor (Ser2448) after application of peptide, no inhibitor", "setting": "[3]; PrRP31 and palm^11-PrRP31 1 × 10^−5 M, insulin 1 × 10^−7 M, 37 °C, 8 min, normalized to GAPDH, triplicates", "result": "significantly increased"}, {"measurement": "p-GSK-3β (Ser9) after incubation with peptide, no inhibitor", "setting": "[3]; palm^11-PrRP31 1 × 10^−5 M, insulin 1 × 10^−7 M, 37 °C, 8 min, normalized to GAPDH, triplicates", "result": "slight increase"}]}
